US20220155314A1, “TROPHOBLAST STEM CELL, METHODS OF PREPARATION AND USES THEREOF” (Academia Sinica, priority 2020, published 2022)
Residues, ends and D or L forms follow the SMILES beside them. *: point of attachment. Cbz = O=C(OCc1ccccc1)*

Assays:
BeWo cells = experiment: Expression of trophoblast stemness and differentiation genes in BeWo cells treated with EGF and chemical inhibitors; assay type: cell-based, human; conditions: 1 mM VPA with 20 μM MG132, 8 h (FIG. 6G)
Protocol: FIGS. 6A to 6I show the regulation of trophoblast stemness and differentiation by antagonism between ΔNp63α and GCM1. […] ITGA6-positive term CTBs were cultured in complete TS medium for 5 days and then maintained in the same medium or incomplete medium (vehicle alone without EGF and chemical inhibitors) for an additional 7 days. Cells were subjected to immunofluorescence microscopy of ΔNp63α, GCM1, and hCGβ. […] BeWo cells were incubated in complete or incomplete TS medium supplemented with the indicated growth factor or chemical inhibitor(s) for 24 h. Cells were harvested for quantitative RT-PCR analysis of the indicated stemness or differentiation genes. […] BeWo cells were treated with the indicated concentration of VPA for 24 hours and then harvested for immunoblotting and quantitative RT-PCR analyses of GCM1, ΔNp63α, and hCGβ. […] BeWo cells were transfected with 4XCSL-luciferase in the presence or absence of 2 mM VPA for 48 hours, followed by luciferase assays. […] 293T cells were transfected with pHA-GCM1 and pNotch1IC-FLAG for 48 hours, followed by coimmunoprecipitation analysis and confocal microscopy using FLAG and HA mAbs and GCM1 Ab. […] EGFP-positive mock or Notch1IC-FLAG-expressing BeWo cells were treated with or without 50 μM FSK for 24 h, followed by immunoblotting and quantitative RT-PCR analyses of GCM1, hCGβ or HTRA4. […] BeWo cells were treated with or without 1 mM VPA in the presence or absence of 20 μM MG132 for 8 h and then subjected to immunoblotting analysis of GCM1 and Notch1IC. […] The EGFP-positive mock or Notch1IC-FLAG-expressing BeWo cells were transfected with the GCM1 promoter reporter plasmid E1bLUCGCM1-2K for 48 h and then subjected to luciferase assays. […] BeWo cells and ITGA6-positive term CTBs were cultured under normoxic or hypoxic conditions for 72 h and 7 days, respectively. Cells were then harvested for quantitative RT-PCR analysis of GCM1, ΔNp63α, HTRA4, hCGβ, and MKI67. Means and standard deviations obtained from three independent experiments are presented.
To study the effect of EGF and chemical inhibitors on trophoblast differentiation, BeWo cells were cultured in the complete TS medium or in the incomplete TS medium with EGF alone or the indicated chemical inhibitor(s) for 24 h. Cells were then harvested for quantitative RT-PCR or immunoblotting analysis of expression of ΔNp63α, eomesodermin (EOMES), E74-like factor 5 (ELF5) or GCM1 and its target genes.

ΔNp63α = ΔNp63α stability in JEG3 cells (FSK with or without MG132); assay type: cell-based, human; conditions: 50 μM FSK 24 h in presence of MG132 (FIG. 3F)
Protocol: FIGS. 3A to 3I show reciprocal regulation of GCM1 and ΔNp63α activities in trophoblast differentiation. […] Scramble control, ΔNp63α-knockdown or GCM1-knockdown JEG3 cells were treated with or without 50 μM FSK for 24 h and then harvested for immunoblotting and quantitative RT-PCR analyses of SYN1, hCGβ, HTRA4 proteins or transcripts. Arrowhead denotes a non-specific band recognized by ΔNp63α Ab. […] Scramble control and ΔNp63α knockdown JEG3 cells were treated with or without 50 μM FSK for 48 h, followed by immunofluorescence microscopy with E-cadherin Ab. Syncytial margins are marked with stippled line. Cell fusion was quantified by fusion index. […] Mock and ΔNp63α-FLAG-expressing BeWo cells or scramble control and ΔNp63α-knockdown JEG3 cells were subjected to immunoblotting and quantitative RT-PCR analyses of RACK1 and GATA3 proteins or transcripts. […] Scramble control or ΔNp63α-knockdown JEG3 cells were transfected with pHTRA4-1 Kb with or without pGATA3-FLAG for 48 h, followed by luciferase assays. […] WT and GCM1-KO JEG3 cells were treated with or without 50 μM FSK for 24 hours and then harvested for immunoblotting and quantitative RT-PCR analyses of GCM1, ΔNp63α, hCGβ proteins and transcripts. […] Quantitation of band intensity was performed by densitometry analysis, and the relative ΔNp63α protein level was normalized by β-actin. […]

With `CC(C)C[C@@H](C=O)NC(=O)[C@H](CC(C)C)NC(=O)[C@H](CC(C)C)NC(=O)OCc1ccccc1` [MG132] (Cbz-Leu-Leu-Leu-aldehyde) the “VPA-mediated downregulation of GCM1 expression” value (BeWo cells) was “compromised” and the “suppressive effect of FSK on ΔNp63α expression” value (ΔNp63α) was “counteracted”.
